Measurements: ChEMBL document CHEMBL1201862, “PubChem BioAssay data set” (2004)
Calls of active or inactive are those of the source.

Experiments:
[1] = system: HEK293; assay: cells; format: functional, cell-based; settings: Homo sapiens
[2] = target: T1, Nuclear receptor subfamily 0 group B member 1 (Homo sapiens, UniProt P51843); assay: Luminescence-based cell-based high throughput dose response assay for inhibitors of the orphan nuclear receptor subfamily 0, group B, member 1 (DAX1; NR0B1). [Related pubchem assays (depositor defined):AID504766, AID504790]; format: functional
T1 sequence (P51843 whole entry): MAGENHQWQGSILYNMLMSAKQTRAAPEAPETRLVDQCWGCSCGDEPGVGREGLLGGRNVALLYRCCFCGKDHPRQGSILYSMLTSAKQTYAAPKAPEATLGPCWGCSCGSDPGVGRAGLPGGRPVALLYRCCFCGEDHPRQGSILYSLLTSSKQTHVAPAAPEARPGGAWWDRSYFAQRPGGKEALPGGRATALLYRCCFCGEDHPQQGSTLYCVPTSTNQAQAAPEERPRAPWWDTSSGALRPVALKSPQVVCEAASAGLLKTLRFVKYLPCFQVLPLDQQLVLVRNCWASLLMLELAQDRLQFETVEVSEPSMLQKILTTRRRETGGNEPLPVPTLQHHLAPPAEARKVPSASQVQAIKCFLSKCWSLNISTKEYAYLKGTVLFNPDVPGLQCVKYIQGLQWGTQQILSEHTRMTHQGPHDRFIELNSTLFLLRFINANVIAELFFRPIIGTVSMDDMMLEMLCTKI

[3] = system: HeLa; assay: HeLa cell cytotoxicity, dose response, cytotoxicity control for MITF activator project, CellTiter-Glo luminescence, cherry-pick samples (AID 540259); format: functional, cell-based; settings: Homo sapiens
[4] = target: T2, Sentrin-specific protease 6 (Homo sapiens, UniProt Q9GZR1); format: functional;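 further: Luminescence-based dose-response confirmatory assay of SENP6 inhibition, following up an ultra-high-throughput screen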
T2 sequence (Q9GZR1 whole entry): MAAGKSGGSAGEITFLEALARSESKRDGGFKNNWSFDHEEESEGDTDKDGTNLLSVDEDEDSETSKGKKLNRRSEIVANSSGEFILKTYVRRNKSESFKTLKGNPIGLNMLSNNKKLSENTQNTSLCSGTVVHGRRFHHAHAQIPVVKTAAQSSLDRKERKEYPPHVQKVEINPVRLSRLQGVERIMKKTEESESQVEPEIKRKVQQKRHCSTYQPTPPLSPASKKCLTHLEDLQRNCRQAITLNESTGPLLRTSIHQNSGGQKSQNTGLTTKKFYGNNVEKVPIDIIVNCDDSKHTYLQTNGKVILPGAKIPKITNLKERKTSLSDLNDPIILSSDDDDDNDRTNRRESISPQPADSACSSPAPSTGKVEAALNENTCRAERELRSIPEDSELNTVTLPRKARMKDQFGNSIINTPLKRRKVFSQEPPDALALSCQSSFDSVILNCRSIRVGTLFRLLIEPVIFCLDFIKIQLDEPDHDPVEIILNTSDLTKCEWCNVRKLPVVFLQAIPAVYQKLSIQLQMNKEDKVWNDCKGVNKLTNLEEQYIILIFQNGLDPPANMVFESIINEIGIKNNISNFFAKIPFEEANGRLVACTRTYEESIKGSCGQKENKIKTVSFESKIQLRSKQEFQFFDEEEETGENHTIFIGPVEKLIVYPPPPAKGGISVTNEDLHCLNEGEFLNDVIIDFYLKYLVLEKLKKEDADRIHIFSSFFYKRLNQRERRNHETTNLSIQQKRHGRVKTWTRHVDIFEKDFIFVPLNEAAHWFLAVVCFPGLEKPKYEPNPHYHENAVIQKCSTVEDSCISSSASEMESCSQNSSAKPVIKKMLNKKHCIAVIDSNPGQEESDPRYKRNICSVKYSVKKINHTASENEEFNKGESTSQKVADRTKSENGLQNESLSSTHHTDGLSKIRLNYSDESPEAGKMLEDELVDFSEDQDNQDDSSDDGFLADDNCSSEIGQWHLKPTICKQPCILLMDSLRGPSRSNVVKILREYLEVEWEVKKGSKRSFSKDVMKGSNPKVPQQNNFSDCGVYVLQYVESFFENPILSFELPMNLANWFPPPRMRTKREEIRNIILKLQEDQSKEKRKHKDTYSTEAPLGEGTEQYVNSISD

[5] = target: T3, Sentrin-specific protease 7 (Homo sapiens, UniProt Q9BQF6); format: functional;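 further: Luminescence-based dose-response confirmation of ultra-high-throughput screening hits, measuring inhibition of SENP7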
T3 sequence (Q9BQF6 whole entry): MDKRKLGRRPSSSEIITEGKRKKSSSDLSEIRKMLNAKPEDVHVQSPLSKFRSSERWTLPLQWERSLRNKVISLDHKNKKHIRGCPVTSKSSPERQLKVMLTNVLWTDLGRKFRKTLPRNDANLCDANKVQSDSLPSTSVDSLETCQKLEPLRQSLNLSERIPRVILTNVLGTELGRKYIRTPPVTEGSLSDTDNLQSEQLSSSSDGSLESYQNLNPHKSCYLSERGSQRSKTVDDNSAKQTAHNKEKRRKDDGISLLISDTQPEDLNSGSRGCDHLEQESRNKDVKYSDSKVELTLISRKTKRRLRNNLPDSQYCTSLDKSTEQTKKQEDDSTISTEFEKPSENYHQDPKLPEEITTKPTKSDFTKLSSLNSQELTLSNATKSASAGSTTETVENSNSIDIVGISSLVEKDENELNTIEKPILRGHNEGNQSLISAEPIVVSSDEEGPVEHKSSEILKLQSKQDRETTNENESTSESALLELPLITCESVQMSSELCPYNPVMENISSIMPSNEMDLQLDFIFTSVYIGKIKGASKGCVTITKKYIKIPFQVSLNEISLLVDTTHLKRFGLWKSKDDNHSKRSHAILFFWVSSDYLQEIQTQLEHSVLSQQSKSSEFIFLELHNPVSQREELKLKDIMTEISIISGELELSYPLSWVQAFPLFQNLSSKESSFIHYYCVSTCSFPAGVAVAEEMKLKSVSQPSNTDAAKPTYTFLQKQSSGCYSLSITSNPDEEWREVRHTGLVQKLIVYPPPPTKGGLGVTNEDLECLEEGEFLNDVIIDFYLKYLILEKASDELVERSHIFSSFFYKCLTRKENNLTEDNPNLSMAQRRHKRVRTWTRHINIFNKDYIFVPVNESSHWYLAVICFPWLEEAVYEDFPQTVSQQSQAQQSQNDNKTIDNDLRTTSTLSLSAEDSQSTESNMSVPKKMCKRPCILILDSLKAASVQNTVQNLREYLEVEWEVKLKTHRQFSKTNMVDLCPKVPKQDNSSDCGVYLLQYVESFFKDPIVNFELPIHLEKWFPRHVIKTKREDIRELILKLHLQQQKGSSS

[6] = target: Voltage-gated inwardly rectifying potassium channel KCNH2 (Homo sapiens, UniProt Q12809); settings: Potency;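 further: confirmatory quantitative high-throughput screen measuring inhibition of hERG channel activity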
Voltage-gated inwardly rectifying potassium channel KCNH2, sequence (Q12809 whole entry): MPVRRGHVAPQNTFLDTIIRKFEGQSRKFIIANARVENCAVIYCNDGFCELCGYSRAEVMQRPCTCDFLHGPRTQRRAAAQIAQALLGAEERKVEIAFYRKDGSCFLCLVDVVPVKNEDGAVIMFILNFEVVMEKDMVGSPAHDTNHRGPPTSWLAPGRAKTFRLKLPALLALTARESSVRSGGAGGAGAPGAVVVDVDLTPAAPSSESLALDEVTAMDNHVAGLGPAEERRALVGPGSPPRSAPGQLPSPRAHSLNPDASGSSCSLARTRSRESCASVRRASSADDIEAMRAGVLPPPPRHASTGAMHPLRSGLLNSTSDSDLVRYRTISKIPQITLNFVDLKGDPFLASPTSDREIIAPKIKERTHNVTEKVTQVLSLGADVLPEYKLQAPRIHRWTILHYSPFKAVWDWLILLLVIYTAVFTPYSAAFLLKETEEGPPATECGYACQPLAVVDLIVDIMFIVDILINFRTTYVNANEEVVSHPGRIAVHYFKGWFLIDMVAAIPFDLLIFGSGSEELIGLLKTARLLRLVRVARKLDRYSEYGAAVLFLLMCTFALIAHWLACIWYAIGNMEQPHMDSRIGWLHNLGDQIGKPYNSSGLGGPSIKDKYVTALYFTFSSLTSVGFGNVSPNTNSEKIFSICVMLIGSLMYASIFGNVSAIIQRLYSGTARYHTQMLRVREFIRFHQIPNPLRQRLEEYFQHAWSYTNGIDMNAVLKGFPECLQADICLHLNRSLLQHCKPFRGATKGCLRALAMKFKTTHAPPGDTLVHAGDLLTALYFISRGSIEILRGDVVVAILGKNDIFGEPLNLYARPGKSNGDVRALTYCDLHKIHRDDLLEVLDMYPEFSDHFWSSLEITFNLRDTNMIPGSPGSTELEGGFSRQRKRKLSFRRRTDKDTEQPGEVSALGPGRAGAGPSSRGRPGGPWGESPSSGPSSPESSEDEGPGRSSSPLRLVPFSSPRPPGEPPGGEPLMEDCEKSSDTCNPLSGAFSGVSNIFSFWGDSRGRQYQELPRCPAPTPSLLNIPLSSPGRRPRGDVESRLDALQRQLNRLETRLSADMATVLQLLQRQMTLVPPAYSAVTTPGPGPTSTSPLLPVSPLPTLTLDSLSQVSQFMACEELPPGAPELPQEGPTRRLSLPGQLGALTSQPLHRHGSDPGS

[7] = target: T4, Sentrin-specific protease 8 (Homo sapiens, UniProt Q96LD8); format: functional;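 further: luminescence read-out of SENP8 inhibition, dose-response confirmation following an ultra-high-throughput screen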
T4 sequence (Q96LD8 whole entry): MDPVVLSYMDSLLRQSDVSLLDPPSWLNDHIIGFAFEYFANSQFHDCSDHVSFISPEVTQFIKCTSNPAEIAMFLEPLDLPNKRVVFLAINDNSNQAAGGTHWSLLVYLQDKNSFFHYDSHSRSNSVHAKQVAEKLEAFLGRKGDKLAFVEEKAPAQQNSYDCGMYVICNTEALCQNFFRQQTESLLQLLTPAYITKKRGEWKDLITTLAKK

[8] = target: T5, Caspase-3 (Homo sapiens, UniProt P42574); format: functional;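 further: Dose-response selectivity test against caspase-3 for candidate inhibitors of sentrin-specific proteases (SENPs)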
T5 sequence (P42574 whole entry): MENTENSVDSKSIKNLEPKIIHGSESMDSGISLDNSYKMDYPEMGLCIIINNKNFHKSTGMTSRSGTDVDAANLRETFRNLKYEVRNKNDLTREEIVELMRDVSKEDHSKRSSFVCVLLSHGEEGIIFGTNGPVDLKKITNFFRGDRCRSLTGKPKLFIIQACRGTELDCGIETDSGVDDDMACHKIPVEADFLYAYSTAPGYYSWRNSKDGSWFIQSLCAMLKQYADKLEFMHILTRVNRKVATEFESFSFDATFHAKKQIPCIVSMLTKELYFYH

[9] = NIH-3T3 fibroblast cytotoxicity, dose response, cytotoxicity control, cell-based, fluorescence, Alamar Blue, secondary assay (AID 2327); format: functional;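 further: NIH-3T3 mouse fibroblasts cultured with fluconazole at 8 µg/mL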
[10] = target: ATP-dependent molecular chaperone HSP82 (Candida albicans (strain WO-1) (Yeast), UniProt C4YTQ8); assay: loss of DOC-induced GRE-beta-galactosidase reporter signal, dose response, Hsp90 inhibitor project, S. cerevisiae, luminescence (AID 2400); format: functional, cell-based;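 further: beta-galactosidase luminescence from glucocorticoid response element reporter as proxy for Hsp90 function; inhibitor potency where signal loss means Hsp90 inhibition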
ATP-dependent molecular chaperone HSP82, sequence (C4YTQ8 whole entry): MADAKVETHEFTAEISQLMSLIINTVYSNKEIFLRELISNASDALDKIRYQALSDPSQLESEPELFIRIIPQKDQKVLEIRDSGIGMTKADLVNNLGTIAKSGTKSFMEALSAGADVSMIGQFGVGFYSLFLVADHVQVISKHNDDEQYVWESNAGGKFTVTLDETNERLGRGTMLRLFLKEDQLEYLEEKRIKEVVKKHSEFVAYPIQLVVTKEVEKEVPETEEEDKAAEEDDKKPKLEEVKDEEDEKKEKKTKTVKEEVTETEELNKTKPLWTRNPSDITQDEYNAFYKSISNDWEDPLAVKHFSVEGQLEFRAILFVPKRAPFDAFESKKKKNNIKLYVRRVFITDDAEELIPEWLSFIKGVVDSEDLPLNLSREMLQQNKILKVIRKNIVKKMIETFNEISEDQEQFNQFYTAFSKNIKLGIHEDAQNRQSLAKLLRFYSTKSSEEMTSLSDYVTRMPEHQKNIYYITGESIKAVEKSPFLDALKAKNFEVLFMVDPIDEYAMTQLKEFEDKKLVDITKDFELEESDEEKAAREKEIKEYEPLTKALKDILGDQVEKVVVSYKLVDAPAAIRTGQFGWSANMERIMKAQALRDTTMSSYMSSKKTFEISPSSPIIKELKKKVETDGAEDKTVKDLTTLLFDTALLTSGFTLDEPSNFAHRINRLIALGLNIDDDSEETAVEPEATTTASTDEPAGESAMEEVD

[11] = target: T6, Serine/threonine-protein phosphatase (Candida dubliniensis (strain CD36 / CBS 7987 / NCPF 3949 / NRRLY-17841) (Yeast), UniProt B9W6M3); assay: calcineurin pathway inhibitors in yeast reporter, dose response, S. cerevisiae, CDRE-lacZ, luminescence, secondary (AID 2388); format: functional, cell-based;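 further: yeast reporter cells carrying a calcineurin-responsive lacZ construct stimulated with calcium chloride; luminescent beta-galactosidase reporter signal in whole cells rather than isolated phosphatase activity; potency for inhibition where a drop in reporter signal means calcineurin blockade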
T6 sequence (B9W6M3 whole entry): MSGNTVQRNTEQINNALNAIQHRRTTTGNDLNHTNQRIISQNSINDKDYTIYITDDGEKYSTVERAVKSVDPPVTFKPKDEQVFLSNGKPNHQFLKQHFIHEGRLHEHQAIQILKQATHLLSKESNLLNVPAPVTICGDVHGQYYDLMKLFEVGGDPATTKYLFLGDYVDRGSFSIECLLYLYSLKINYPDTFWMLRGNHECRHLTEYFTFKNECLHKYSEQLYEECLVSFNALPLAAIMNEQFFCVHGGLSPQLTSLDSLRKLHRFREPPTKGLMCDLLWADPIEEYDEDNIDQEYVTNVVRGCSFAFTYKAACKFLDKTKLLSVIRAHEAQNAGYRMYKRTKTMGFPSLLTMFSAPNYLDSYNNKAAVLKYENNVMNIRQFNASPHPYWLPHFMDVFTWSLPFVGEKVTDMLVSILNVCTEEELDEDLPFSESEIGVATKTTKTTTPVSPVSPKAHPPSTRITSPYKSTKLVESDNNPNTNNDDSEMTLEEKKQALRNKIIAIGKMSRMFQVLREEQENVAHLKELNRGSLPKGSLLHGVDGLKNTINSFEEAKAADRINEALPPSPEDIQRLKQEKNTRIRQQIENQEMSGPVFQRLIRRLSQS

[12] = C. albicans growth with fluconazole, confirmation, fluorescence, retest (AID 2467); format: functional, cell-based
[13] = target: T7, Type-1 angiotensin II receptor (Homo sapiens, UniProt P30556); assay: AT1 receptor antagonists, dose response, selectivity assay for APJ receptor antagonist project, cell-based, uHTS hits (AID 463214); format: functional;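 further: antagonist potency against angiotensin II stimulated AT1 response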
T7 sequence (P30556 whole entry): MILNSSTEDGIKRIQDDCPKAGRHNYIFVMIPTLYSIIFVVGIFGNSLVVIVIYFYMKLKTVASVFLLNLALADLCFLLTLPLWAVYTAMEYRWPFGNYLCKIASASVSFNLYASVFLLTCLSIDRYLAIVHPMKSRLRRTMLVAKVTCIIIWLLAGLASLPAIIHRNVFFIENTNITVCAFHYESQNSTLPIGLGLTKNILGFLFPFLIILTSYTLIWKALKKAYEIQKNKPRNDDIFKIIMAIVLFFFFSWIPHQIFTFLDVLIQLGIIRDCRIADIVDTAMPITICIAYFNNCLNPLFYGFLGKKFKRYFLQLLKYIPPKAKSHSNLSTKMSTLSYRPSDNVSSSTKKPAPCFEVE

[14] = target: Beta-galactosidase (Escherichia coli, UniProt Q8VNN2); assay: PubChem AID 485352; format: functional
Beta-galactosidase, sequence (Q8VNN2 whole entry): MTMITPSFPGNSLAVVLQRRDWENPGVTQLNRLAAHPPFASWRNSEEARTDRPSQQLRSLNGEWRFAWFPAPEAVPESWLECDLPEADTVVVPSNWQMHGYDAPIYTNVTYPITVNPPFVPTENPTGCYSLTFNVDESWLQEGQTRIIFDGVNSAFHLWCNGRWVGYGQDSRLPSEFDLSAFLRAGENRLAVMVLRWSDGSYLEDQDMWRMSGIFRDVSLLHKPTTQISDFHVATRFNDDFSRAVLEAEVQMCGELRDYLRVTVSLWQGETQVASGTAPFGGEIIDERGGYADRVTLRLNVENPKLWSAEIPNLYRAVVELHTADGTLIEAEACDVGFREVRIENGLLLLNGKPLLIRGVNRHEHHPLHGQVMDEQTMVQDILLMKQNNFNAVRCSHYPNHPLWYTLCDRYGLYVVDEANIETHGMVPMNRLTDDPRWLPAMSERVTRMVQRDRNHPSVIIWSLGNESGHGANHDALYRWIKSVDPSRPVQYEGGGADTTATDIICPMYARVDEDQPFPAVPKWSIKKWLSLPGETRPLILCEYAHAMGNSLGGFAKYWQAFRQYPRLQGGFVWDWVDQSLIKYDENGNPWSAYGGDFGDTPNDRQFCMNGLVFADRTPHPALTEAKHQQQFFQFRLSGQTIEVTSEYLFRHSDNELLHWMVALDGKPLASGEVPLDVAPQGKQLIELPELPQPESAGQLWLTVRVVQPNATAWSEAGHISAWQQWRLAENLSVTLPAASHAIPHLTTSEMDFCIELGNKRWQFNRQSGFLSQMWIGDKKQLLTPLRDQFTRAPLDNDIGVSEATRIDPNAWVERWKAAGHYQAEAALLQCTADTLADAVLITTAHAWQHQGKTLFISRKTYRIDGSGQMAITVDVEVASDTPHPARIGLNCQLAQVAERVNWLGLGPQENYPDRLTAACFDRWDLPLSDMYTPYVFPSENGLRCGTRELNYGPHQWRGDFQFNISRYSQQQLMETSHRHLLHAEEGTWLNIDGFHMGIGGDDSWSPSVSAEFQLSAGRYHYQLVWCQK

[15] = HEp-2 cell cytotoxicity, dose response, cytotoxicity control for RSV inhibitor project, HTS (AID 2410); format: functional; settings: human respiratory syncytial virus
[16] = system: Vero; assay: Vero cell cytotoxicity, cytotoxicity control for flavivirus capping enzyme inhibitors (AID 588742); format: functional; settings: Chlorocebus sabaeus

Question: Which IC50 [1] does the source give for `CCOC(=O)c1nn(-c2ccc(Cl)cc2)cc1O` here?
Answer: > 67.5 µM (inactive)

Question: And the IC50 [2]?
Answer: > 67.5 µM (inactive)

Question: Which AC50 [3] does the source give for `Cc1ccc2c(c1N)C(=O)c1ccccc1C2=O` here?
Answer: 36 µM (active)

Question: And the IC50 [4]?
Answer: 42.3 µM (active)

Question: What about the IC50 [5] of the same molecule?
Answer: 4.33 µM (active)

Question: And the AC50 [6]?
Answer: 35.5 µM (inconclusive)

Question: And the IC50 [7]?
Answer: > 100 µM (inactive)

Question: What about the IC50 [8] of the same molecule?
Answer: 11.8 µM (active)

Question: Which IC50 [1] does the source give for `CCOc1ccc(-n2c(=O)[nH]c3sc4c(c3c2=O)CCCC4)cc1` here?
Answer: > 67.6 µM (inactive)

Question: What about the IC50 [2] of the same molecule?
Answer: > 67.6 µM (inactive)

Question: What does the source list for `COc1ccc(-n2nc(C(=O)NCC(=O)NCCC3=CCCCC3)c3ccccc3c2=O)c(OC)c1`?
Answer: EC50 [9]: > 150 µM (inactive); EC50 [10]: > 150 µM (inactive); EC50 [11]: > 180 µM (inactive); EC50 [12]: 0.469 µM (active)

Question: Which IC50 [13] does the source give for `O=C(CN1C(=O)C2C3C=CC(C3)C2C1=O)OCC(=O)c1ccc(Cl)c([N+](=O)[O-])c1` (stereo unspecified) here?
Answer: 14.3 µM (active)

Question: What about the EC50 [14] of the same molecule?
Answer: > 40 µM (inactive)

Question: With `O=C(CNc1ccccc1C(=O)O)c1ccccc1` as the molecule, how does the IC50 [13] read?
Answer: 7.51 µM (active)

Question: What about the EC50 [14] of the same molecule?
Answer: > 40 µM (inactive)

Question: Which results are given for `COc1ccccc1N1CCN(C(S)=Nc2ccc3nc(N4CCOCC4)cc(C)c3c2)CC1`?
Answer: CC50 [15]: 39.1 µM (active); CC50 [16]: > 40 µM (active)

Question: Which results are given for `C/C(=N\NC(=O)c1nn(C)cc1Br)c1ccncc1`?
Answer: IC50 [1]: > 67.6 µM (inactive); IC50 [2]: > 67.6 µM (inactive)

Question: What does the source list for `Cc1nn(-c2ccccc2)c(C)c1C(=O)OC/C(O)=C(\C#N)c1nc2ccccc2[nH]1`?
Answer: EC50 [9]: > 150 µM (inconclusive); EC50 [10]: > 150 µM (inactive); EC50 [11]: > 180 µM (inactive); EC50 [12]: 0.764 µM (active)
